One experiment addresses T1, glucagon receptor (Homo sapiens, UniProt P47871).
T1 construct: expressed in transfected cells; host or cells: Chinese Hamster Ovary cells (CHO-HGR), membranes
The experiment in a line: glucagon receptor binding assay (125I-glucagon, CHO-HGR membranes). To be noted: 125I-glucagon; 60 min at room temperature; read-out: IC50. An outline of the steps:
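Membranes from CHO cells expressing glucagon receptor (10 ug protein) in Tris pH 7.4 buffer with EDTA, BSA and bacitracin, incubated with test compound and 125I-glucagon (9 fmol) 60 min at room temperature. Bound radioactivity counted after filtration; nonspecific binding defined with 1 μM native glucagon; 0.5% DMSO.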
T1 sequence (P47871 26-477): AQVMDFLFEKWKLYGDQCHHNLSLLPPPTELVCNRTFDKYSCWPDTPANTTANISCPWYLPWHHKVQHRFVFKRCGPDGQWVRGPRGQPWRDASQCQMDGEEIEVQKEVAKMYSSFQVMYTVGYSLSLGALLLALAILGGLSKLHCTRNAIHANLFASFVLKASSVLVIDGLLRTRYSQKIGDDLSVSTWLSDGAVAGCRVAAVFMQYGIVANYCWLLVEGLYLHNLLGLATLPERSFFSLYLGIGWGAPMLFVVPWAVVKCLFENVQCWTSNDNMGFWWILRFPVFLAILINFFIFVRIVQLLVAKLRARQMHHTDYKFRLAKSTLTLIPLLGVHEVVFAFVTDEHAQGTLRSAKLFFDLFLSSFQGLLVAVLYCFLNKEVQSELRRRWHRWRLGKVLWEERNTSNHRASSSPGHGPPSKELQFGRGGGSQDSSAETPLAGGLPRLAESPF
The IC50 is the point on the concentration scale where inhibition reaches its midpoint. As to `CC(C)c1nc2c(c(-c3ccc(F)cc3)c1CO)CCCC2(C)C` [Example 230, 2-Isopropyl-3-hydroxymethyl-4-(4-fluorophenyl)-5,6,7,8-tetrahydro-8,8-dimethylquinoline], the IC50 worked out at 0.9 µM.
`CC(C)c1nc2c(c(-c3ccc(F)cc3)c1C(C)O)CCCC2(C)C` (stereo not shown) [Example 231, 2-Isopropyl-3-(1-hydroxyethyl)-4-(4-fluorophenyl)-5,6,7,8-tetrahydro-8,8-dimethylquinoline]: the IC50 worked out at 0.5 µM.
With `CC(C)c1nc(C(C)C)c(C(C)O)c(-c2ccc(F)cc2)c1-c1ccccc1` (stereo not shown) [Example 233, 2,6-Diisopropyl-3-(1-hydroxyethyl)-4-(4-fluorophenyl)-5-phenylpyridine], the concentration for half-maximal inhibition (IC50) came to 0.6 µM.
In the case of `CC(C)c1nc2c(c(-c3ccc(F)cc3)c1CO)CCC2(C)C` [Example 234, 2-Isopropyl-3-hydroxymethyl-4-(4-fluorophenyl)-7,7-dimethyl-5H-cyclopenta[b]pyridine], the IC50 is 8 µM.
For the compound `CC(C)c1nc2c(c(-c3ccc(F)cc3)c1C(C)O)CCC2(C)C` (stereo not shown) [Example 235, 2-Isopropyl-3-(1-hydroxyethyl)-4-(4-fluorophenyl)-7,7-dimethyl-5H-cyclopenta[b]pyridine], the IC50 amounted to 3.1 µM.
`CC1=CC(C)(C)Cc2c1nc(C(C)C)c(CO)c2-c1ccc(F)cc1` [Example 236, 2-Isopropyl-3-hydroxymethyl-4-(4-fluorophenyl)-5,6-dihydro-6,6,8-trimethylquinoline]: the IC50 came to 4 µM.
For the compound `CC1=CC(C)(C)Cc2c1nc(C(C)C)c(C(C)O)c2-c1ccc(F)cc1` (stereo not shown) [Example 237, 2-Isopropyl-3-(1-hydroxyethyl)-4-(4-fluorophenyl)-5,6-dihydro-6,6,8-trimethylquinoline], the IC50 is 1.2 µM.
Regarding `CCCc1c(C(C)C)cc(C(C)C)c(C(C)O)c1-c1ccc(F)cc1O` (stereo not shown) [Example 242, 3,5-Diisopropyl-2-(1-hydroxyethyl)-6-propyl-4'-fluoro-2'-hydroxy-1,1'-biphenyl], the IC50 amounted to 0.005 µM.
Still for that read-out and setting: the result for `CCc1c(C(C)C)cc(C(C)C)c(C(C)O)c1-c1ccc(F)cc1O` (stereo not shown) [Example 246, 3,5-Diisopropyl-2-(1-hydroxyethyl)-6-ethyl-4'-fluoro-2'-hydroxy-1,1'-biphenyl] reads 0.011 µM; that for `CCCCCc1c(C(C)C)cc(C(C)C)c(C(C)O)c1-c1ccc(F)cc1O` (stereo not shown) [Example 247, 3,5-Diisopropyl-2-(1-hydroxyethyl)-6-pentyl-4'-fluoro-2'-hydroxy-1,1'-biphenyl], 0.006 µM; that for `CC(C)c1cc(C(C)C)c(CSc2cc(Cl)cc(Cl)c2)c(-c2ccc(F)cc2)c1CO` [Example 285], 9 µM.
On the same count and under the same terms, the result for `Cc1c(F)c(F)c(SCc2c(C(C)C)cc(C(C)C)c(CO)c2-c2ccc(F)cc2)c(F)c1F` [Example 286] reads 18 µM; that for `CC(C)c1cc(C(C)C)c(CSc2c(F)c(F)c(Cl)c(F)c2F)c(-c2ccc(F)cc2)c1CO` [Example 287], 20 µM; that for `CC(C)c1cc(C(C)C)c(CSc2c(F)c(F)cc(F)c2F)c(-c2ccc(F)cc2)c1CO` [Example 288], 2 µM.

The subject of another experiment is rat liver membrane.
Assay: not given
To be noted: Collins et al. 1992; cited from earlier work.
As to `CN(C)CCCN(C)c1nc2cc(Cl)c(Cl)cc2nc1/C=C/c1ccccc1` [CP-99,711], the inhibit glucagon binding result was “micromolar concentrations”.

The subject of the next experiment is rat liver membrane.
Assay: not given
To be noted: Collins et al. 1992; cited from earlier work. The source holds these as a separate data set.
Take `CN(C)CCCN(C)c1nc2cc(Cl)c(Cl)cc2nc1/C=C/c1ccccc1` [CP-99,711]: the inhibit glucagon action entry was “micromolar concentrations”.

Source of the values: patent publication US6218431A, “Substituted biphenyls” (Bayer Corporation, priority 1997, dated 2001).
